Experimental findings from PMC12526212, “Novel Isolongifolenone-Based Caprolactam Derivatives as Potential Anticancer Agents via the p53/mTOR/Autophagy Pathway” (Molecules, 2025) are described below.

One experiment relates to MCF-7 xenograft. In words: Zebrafish MCF-7 xenograft model. It is filed as in vivo. The conditions noted are these: 48 h, compared with PBS control; Dox 1.0 μM. An excerpt: Zebrafish have become a well-established model for both anticancer drug discovery and toxicity evaluation. This animal model affords several unique advantages, including rapid development, optical transparency, and genetic conservation with humans. These features make zebrafish particularly suitable for high-throughput in vivo screening and mechanistic studies in oncology research. Tumor burden in zebrafish xenografts is commonly quantified from Dil/DiI-labeled fluorescence area or integrated intensity, which correlates with cell number and treatment response. To assess the in vivo antitumor efficacy of compound E10, we established a zebrafish xenograft model. Briefly, CM-Dil-labeled MCF-7 cells (showing red fluorescence) were microinjected into the yolk sacs of zebrafish embryos. The xenografted zebrafish were then randomly assigned into five groups: three E10-treatment groups (0.5 µg/mL, 1.0 µg/mL, and 2.0 µg/mL), a Doxorubicin (Dox) positive control group, and a PBS negative control group.
All experimental procedures were approved by ACUC of Shandong Academy of Sciences (Animal Care and Use Committee). Wild-type AB of zebrafish were obtained from Biology Institute, Qilu University of Technology. The embryos were incubated in special embryonic medium (0.17 mM KCl, 5.0 mM NaCl, 0.4 mM CaCl2, and 0.16 mM MgSO4) at 28 °C. 48 h-old zebrafish embryos were microinjected with CM-Dil labelled MCF-7 cells under stereomicroscopy. After injection, zebrafish embryos with the same injection spot were randomly planted on a six-well plate. These xenograft zebrafish were sorted into four groups of about 15–20 zebrafish each and treated with 0.5, 1.0, 2.0 μg/mL of compound E10 for 48 h, 1.0 μM doxorubicin as a positive control group. After treatment, the fluorescence intensity of living cells was examined with laser confocal microscopy (Olympus, Tokyo, Japan).

Experiment [1] concerns MCF-7 cells. The experiment is described as follows: Monodansylcadaverine (MDC) staining assay for autophagy. As to conditions: 24 h, compared with control; 3-MA as co-treatment with E10. It is filed as cell-based, human. The procedure:
To investigate whether E10 induced autophagy in MCF-7 cells, we performed Monodansylcadaverine (MDC) staining, transmission electron microscopy (TEM), and Western blot analysis to evaluate autophagy-related markers. MDC is a fluorescent probe commonly used to detect the formation of autophagic vacuoles, as it specifically labels autophagosomes.
MDC is a staining indicator for the formation of autophagosome. MCF-7 cells were seeded at a density of 2 × 10^5 cells per well in 6-well plates. MCF-7 cells were inoculated into a 6-well plate, and the cells were treated with E10 for 24 h. The treated cells were washed twice with buffer and then stained with MDC (Beijing Solarbio Science & Technology Co., Ltd., Beijing, China) for 40 min. The cells were then detected under a fluorescence microscope (Carl Zeiss, Jena, Germany).

For experiment [2], the system named is MCF-7 cells. In words: Annexin V/PI apoptosis assay by flow cytometry. In kind it is cell-based, human. The conditions noted are these: Figure 6A, in comparison with control. As to the method:
The ability of drugs to induce cancer cell apoptosis is a key indicator of their chemotherapeutic potential. […] To examine the apoptotic effects of E10, an Annexin V-FITC dual-staining assay (with flow cytometric analysis) was performed. As shown in Figure 3A (also Figure 3C), treatment with increasing concentrations of E10 induced a marked elevation in apoptotic cell populations.
Autophagy has bidirectional regulation effects on cell survival. To confirm the role of autophagy in E10-induced cell death, 3-MA was used as an autophagy blocker.
MCF-7 cells were seeded at a density of 6 × 10^5 cells per well in 12-well plates and incubated in a 37 °C, 5% CO2 incubator for 24 h. After treatment with different concentrations of compound E10, the cells were washed with PBS two times, collected by trypsin enzymic digestion and centrifugation, and the collected cells were subsequently stained with 5 µL Annexin V-APC (YSRIBIO-C1084) and 5 µL PI for 10 min in the dark conditions. The cell apoptosis was measured with the flow cytometry (BD), and the data were analyzed by flowjo 10.6 software.

Consider `COc1cccc2c1C(=O)c1c(O)c3c(c(O)c1C2=O)C[C@@](O)(C(=O)CO)C[C@@H]3O[C@H]1C[C@H](N)[C@H](O)[C@H](C)O1` [Dox, Doxorubicin, reference compound], for which the “fluorescence intensity of xenograft” value with MCF-7 xenograft is “notable reduction in fluorescence intensity”.
On to `Cn1cnc(N)c2ncnc1-2` [3-MA, 3-methyladenine, reference compound], for which, in the experiment with MCF-7 cells [1], the “MDC staining, autophagosome formation” value is on record as “marked reduction in fluorescence intensity”. In addition, the “cell apoptosis with or without autophagy blocker 3-MA” value with MCF-7 cells [2] is listed as “reversed E10-induced apoptosis”.
